Results taken from ChEMBL document CHEMBL1201862, “PubChem BioAssay data set” (2004).
Active and inactive are the calls of the source.

Tests used:
[1] = Luminescence Cell-Based Dose Retest to Confirm Inhibitors of Cancer Stem Cells. [Related pubchem assays (depositor defined):AID2717, AID2721]; assay type: functional; conditions: Homo sapiens
[2] = target: T1, Rac GTPase-activating protein 1 (Homo sapiens, UniProt Q9H0H5); test: MgcRacGAP GTPase-activating activity inhibitors, confirmation, biochemical, ADP Hunter fluorescence, primary and confirmatory (AID 624330); assay type: functional
T1 sequence (Q9H0H5 whole entry): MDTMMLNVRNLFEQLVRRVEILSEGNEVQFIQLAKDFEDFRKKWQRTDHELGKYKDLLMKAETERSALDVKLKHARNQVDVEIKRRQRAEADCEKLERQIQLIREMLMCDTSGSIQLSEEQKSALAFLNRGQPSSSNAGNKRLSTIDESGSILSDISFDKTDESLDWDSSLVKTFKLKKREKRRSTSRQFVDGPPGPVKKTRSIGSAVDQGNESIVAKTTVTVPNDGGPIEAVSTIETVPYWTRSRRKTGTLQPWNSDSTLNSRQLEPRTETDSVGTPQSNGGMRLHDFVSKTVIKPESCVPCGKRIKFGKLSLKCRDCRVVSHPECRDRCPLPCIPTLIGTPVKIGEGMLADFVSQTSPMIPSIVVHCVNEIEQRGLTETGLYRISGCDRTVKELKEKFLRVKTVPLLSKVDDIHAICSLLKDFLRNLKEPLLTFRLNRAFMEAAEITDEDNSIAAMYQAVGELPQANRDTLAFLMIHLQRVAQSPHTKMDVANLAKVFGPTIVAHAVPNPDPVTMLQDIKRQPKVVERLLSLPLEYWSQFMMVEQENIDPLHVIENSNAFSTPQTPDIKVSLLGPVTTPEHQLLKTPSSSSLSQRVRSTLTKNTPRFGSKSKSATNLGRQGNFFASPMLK

[3] = target: Cytochrome P450 2C19 (Homo sapiens, UniProt P33261); test: Cytochrome panel assay with activity outcomes. Panel member name: p450-cyp2c19 Compounds with AC50 equal or less than 10 uM are considered active; assay type: functional
Cytochrome P450 2C19, sequence (P33261 whole entry): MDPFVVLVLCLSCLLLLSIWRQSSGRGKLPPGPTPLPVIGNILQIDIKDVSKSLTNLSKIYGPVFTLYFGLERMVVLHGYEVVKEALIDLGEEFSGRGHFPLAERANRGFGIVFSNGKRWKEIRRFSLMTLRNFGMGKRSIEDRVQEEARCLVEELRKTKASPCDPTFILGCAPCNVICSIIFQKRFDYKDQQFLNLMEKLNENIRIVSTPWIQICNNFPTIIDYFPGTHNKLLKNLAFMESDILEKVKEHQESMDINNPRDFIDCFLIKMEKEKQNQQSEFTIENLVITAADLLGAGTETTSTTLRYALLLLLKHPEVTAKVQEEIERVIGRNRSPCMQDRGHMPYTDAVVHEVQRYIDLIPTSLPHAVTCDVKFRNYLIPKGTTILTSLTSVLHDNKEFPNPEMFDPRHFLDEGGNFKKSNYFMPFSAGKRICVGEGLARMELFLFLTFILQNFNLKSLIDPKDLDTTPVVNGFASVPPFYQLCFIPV

[4] = target: Cytochrome P450 3A4 (Homo sapiens, UniProt P08684);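 note: CYP3A4 tested as one member of a cytochrome P450 panel screen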
Cytochrome P450 3A4, sequence (P08684 whole entry): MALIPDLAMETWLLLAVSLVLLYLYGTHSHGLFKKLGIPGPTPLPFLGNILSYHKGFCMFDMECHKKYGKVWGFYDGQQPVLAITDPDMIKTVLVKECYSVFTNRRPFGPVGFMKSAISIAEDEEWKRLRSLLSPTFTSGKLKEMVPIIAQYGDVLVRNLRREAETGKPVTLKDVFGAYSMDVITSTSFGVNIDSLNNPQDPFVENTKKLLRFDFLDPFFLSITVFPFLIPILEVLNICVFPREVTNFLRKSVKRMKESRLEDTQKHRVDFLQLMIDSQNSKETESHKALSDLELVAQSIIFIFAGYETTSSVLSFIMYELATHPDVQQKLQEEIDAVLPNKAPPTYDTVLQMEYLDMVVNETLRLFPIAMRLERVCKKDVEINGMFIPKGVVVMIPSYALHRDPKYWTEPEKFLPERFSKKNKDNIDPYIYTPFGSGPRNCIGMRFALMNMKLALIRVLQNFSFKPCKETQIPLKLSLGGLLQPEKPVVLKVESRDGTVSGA

[5] = HEp-2 cell cytotoxicity, dose response, cytotoxicity control for RSV inhibitor project, HTS (AID 2410); assay type: functional; conditions: human respiratory syncytial virus
[6] = Luminescence Cell-Based Dose Confirmation HTS to Identify Activators of 5'UTR Stem-Loop Driven Alpha-Synuclein mRNA Translation in H4 Neuroglioblastoma Cells. [Related pubchem assays: 1829 (Project Summary), 1814 (Primary HTS)]; assay type: functional
[7] = Luminescence Cell-Based Dose Response HTS to Identify Activators of Luciferase Translation or Activity in H4 […] Cells. [Related pubchem assays: 1829 (Project Summary), 1814 (Primary HTS)]; assay type: functional
[8] = tested on: H4; test: Luminescence Cell-Based Dose Response HTS to Identify Activators of 5'UTR Stem-Loop Driven Prion Protein mRNA Translation in H4 Neuroglioblastoma Cells. [Related pubchem assays: 1829 (Project Summary), 1814 (Primary HTS)]; assay type: functional; conditions: Homo sapiens
[9] = target: T2, Cytochrome P450 1A2 (Homo sapiens, UniProt P05177);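 note: PubChem cytochrome P450 panel assay, CYP1A2 panel member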
T2 sequence (P05177 whole entry): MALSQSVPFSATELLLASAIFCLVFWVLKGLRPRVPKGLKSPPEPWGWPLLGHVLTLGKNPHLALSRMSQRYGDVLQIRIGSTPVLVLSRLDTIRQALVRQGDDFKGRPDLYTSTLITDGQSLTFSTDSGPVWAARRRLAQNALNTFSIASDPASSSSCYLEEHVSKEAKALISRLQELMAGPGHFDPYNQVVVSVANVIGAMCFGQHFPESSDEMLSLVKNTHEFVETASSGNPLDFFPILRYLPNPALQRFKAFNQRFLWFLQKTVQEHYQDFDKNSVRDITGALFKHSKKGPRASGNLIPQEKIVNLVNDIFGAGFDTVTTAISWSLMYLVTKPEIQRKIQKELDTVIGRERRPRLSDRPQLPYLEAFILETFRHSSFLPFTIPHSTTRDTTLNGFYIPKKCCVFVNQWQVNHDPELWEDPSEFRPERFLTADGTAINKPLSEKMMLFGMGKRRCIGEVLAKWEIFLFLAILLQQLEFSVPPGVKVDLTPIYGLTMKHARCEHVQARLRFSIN

[10] = inhibitors of intracellular T. cruzi replication, confirmation, NIH3T3 host cells, beta-gal luminescence (AID 2044); assay type: functional, cell-based;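 note: intracellular parasites grown in NIH/3T3 mouse fibroblasts as host cells; luminescent beta-galactosidase reporter signal from transgenic T. cruzi replicating inside host cells; inhibitors lower the luminescence signal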
[11] = cytotoxicity toward NIH3T3 fibroblasts, dose response, counter-screen, cell-based, ATP luminescence, mouse fibroblasts (AID 2010); assay type: functional;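 note: cells exposed to compound for about 90 hours before reading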
[12] = target: T3, Corticotropin-releasing factor receptor 2/Corticotropin-releasing factor-binding protein (Homo sapiens, UniProt P24387+Q13324); test: activators of CRF receptor 2 with binding protein – uHTS hits, confirmation (AID 602473); assay type: functional; conditions: read-out: EC50_Mean
T3 sequence (Q13324 whole entry): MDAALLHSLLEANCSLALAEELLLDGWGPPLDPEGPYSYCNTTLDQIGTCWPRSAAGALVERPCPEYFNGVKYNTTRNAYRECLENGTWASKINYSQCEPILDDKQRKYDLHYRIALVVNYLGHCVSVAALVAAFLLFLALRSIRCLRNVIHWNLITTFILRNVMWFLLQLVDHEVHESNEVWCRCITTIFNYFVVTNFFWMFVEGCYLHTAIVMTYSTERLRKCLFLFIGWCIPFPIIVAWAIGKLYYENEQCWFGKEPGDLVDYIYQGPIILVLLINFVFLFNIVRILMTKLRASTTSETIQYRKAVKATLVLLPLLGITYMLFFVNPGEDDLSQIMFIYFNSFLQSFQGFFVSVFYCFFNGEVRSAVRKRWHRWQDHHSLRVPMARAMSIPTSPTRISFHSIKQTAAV
T3 sequence (P24387 whole entry): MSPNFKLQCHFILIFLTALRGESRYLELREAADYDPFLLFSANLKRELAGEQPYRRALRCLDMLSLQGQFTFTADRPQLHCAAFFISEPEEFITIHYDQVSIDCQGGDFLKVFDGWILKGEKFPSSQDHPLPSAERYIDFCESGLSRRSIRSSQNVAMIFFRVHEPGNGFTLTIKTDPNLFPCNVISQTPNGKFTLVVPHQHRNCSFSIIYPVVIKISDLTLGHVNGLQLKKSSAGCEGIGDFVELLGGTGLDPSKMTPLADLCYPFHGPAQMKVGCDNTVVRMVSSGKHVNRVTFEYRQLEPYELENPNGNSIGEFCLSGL

[13] = tested on: Streptococcus sp. 'group A'; test: growth inhibition of control SK(-) GAS strain, dose response, counter-screen for streptokinase expression inhibitor project, luminescence, kanamycin, BacTiterGlo, confirmation (AID 1900); assay type: functional, organism-based
[14] = tested on: Streptococcus; test: Group A Streptococcus viability loss, dose response, counter-screen for streptokinase expression inhibitor project, luminescence, BacTiterGlo (AID 1915); assay type: functional, organism-based;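 note: potency for reduction of bacterial viability or growth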

Cc1nnc(-c2ccc(Oc3ccc(Cl)cc3)c([N+](=O)[O-])c2)o1
AC50 [1]: < 0.16 µM (active)

CCOc1cc(/C=C2\C(=O)N(Cc3ccco3)C(C)=C2C(=O)OC)ccc1O
IC50 [2]: 69.9 µM (active)

CCc1ccccc1OC[C@@H](O)CN[C@H]1CCCc2ccccc21
AC50 ([3]; read-out: AC50): 2 µM (inconclusive)

CCNC(=O)CSc1nnc(C2CC2)n1-c1ccccc1
AC50 ([3]; read-out: AC50): 22.4 µM (inconclusive) | AC50 [4]: 28.2 µM (inconclusive)

COc1ccc(/C=C2\CCCC3C2=NN(C(=O)c2ccco2)C3c2ccc(OC)c(OC)c2)cc1OC (configuration not stated)
AC50 ([3]; read-out: AC50): 31.6 µM (inconclusive)

CN(C)C(=O)Oc1cc(OC(=O)N(C)C)cc([C@@H](O)CNC(C)(C)C)c1
AC50 [3]: inconclusive

CCOc1ccc(Cl)cc1CNCCNCCO.Cl
AC50 [3]: inconclusive

COc1ccc(Cc2nc3ccc(C(=O)NCCc4cccc(C)n4)cc3o2)cc1
CC50 [5]: 19.7 µM (active)

Cc1ccc(NC(=O)c2ccc(NCCCN3CCOCC3)c([N+](=O)[O-])c2)cc1Cl
CC50 [5]: 12.8 µM (active)

Cc1cccc(N(C)Cc2nnc(-c3cccc(Br)c3)o2)c1
CC50 [5]: 33.1 µM (active)

C=C1CCO[C@@]2([C@H](O)[C@@](C)(O)CO)NC(=O)[C@]1(O)NC2=O
AC50 [3]: inconclusive

Cc1cnn(CCC(=O)NN=C(S)Nc2ccc(F)cc2)c1
AC50 ([3]; read-out: AC50): 17.8 µM (inconclusive) | AC50 [4]: 17.8 µM (inconclusive)

COC(=O)[C@H](CCSC)NC(=O)NCc1ccccc1F
AC50 ([3]; read-out: AC50): 0.0158 µM (inconclusive)

CS(=O)(=O)N1CCN(C2C3CC4CC(C3)CC2C4)CC1 (configuration not stated)
IC50 [2]: 152 µM (active)

Oc1ccc2ccccc2c1Br
IC50 [2]: 20.3 µM (active)

Cc1nn(-c2ccc3ccccc3c2)c(=O)c2ccccc12
EC50 [6]: < 0.1 µM (active) | EC50 [7]: 0.213 µM (active) | EC50 [8]: 29.7 µM (active)

O=C1OC(c2ccccc2)=N/C1=C\N1CCCCC1
EC50 [6]: 0.176 µM (active) | EC50 [7]: 0.374 µM (active) | EC50 [8]: > 120 µM (not active)

COCCn1c(=O)c(-c2cccc(C#N)c2)nc2cnc(Oc3ccc(OC)cc3)nc21
AC50 ([3]; read-out: AC50): 39.8 µM (inconclusive) | AC50 [9]: 12.6 µM (inconclusive)

COC(=O)c1cccc(Nc2cc(C)nc(-c3ccccc3O)n2)c1
EC50 [10]: 2.74 µM (active) | EC50 [11]: 7.5 µM (active) | AC50 [1]: 1.75 µM (active)

Cc1ccc(S(=O)(=O)N[C@H](C(=O)OCC(=O)N2N=C(c3ccc(Cl)cc3)CC2c2ccco2)C(C)C)cc1 (some centres not stated)
CC50 [5]: > 50 µM (active) | EC50 [12]: > 53 µM (inactive)

COc1ccc(-c2cn(CCc3c[nH]c4ccccc34)nn2)cc1
AC50 [1]: 2.86 µM (active)

O=C(CN1CCN(c2ncccn2)CC1)N1CCCC1
IC50 [2]: 176 µM (active)

CC1CCN(c2nc(-c3cccnc3)nc3scc(-c4ccccc4)c23)CC1
AC50 [1]: 1.36 µM (active)

Cc1ccc2nc(NC(=O)C3CCCN(S(=O)(=O)c4c[nH]cn4)C3)sc2c1 (configuration not stated)
EC50 [6]: 30.4 µM (active) | EC50 [7]: 23.4 µM (active) | EC50 [8]: 20.8 µM (active)

Cc1ccc(C)c(Cc2c(C)nc3c(C(=O)NCc4ccc5c(c4)OCO5)cnn3c2C)c1
EC50 [10]: 1.61 µM (active) | EC50 [11]: > 60 µM (not active) | AC50 [1]: 4.98 µM (active)

CCCCCn1cc[n+](C2=C([N-]S(=O)(=O)c3ccc(Br)cc3)C(=O)c3ccccc3C2=O)c1
EC50 [13]: 4.17 µM (active) | EC50 [14]: 6.33 µM (active)

Cc1cc(C)c2nc(N3CCCC(C(=O)N4CCN(c5ncccn5)CC4)C3)sc2c1 (configuration not stated)
AC50 [1]: 5.98 µM (active)

Cc1ccc(C(=O)Nc2cc(C(C)C)c(O)c(C(C)C)c2)cc1
CC50 [5]: 32 µM (active)

O=C(/C=C/c1ccccc1)OCCNC1=NS(=O)(=O)c2ccccc21
CC50 [5]: 36.4 µM (active)

CCOC(=O)c1ccc2[nH]c3c(c2c1)CCCC3NC=O (configuration not stated)
CC50 [5]: 36 µM (active)

Nc1c(-c2ccccc2)cnn1-c1cccc(C(F)(F)F)c1
EC50 [6]: 0.538 µM (active) | EC50 [7]: 56.7 µM (active) | EC50 [8]: 8 µM (active)

COc1ccc(Oc2ncc3nc(-c4ccccc4)c(=O)n(C4CC4)c3n2)cc1
AC50 ([3]; read-out: AC50): 31.6 µM (inconclusive)

C=C[C@@H]1c2cc(C)ccc2N(S(=O)(=O)c2ccc(C)cc2)[C@H](c2ccc(OC(C)=O)cc2)C1(C#N)C#N
AC50 [1]: 0.804 µM (active)

COc1ccc(CCNC(=O)Cn2cnc3c2c(=O)n(C)c(=O)n3C)cc1OC
AC50 [3]: inconclusive | AC50 [9]: 3.16 µM (inconclusive)

Cc1cccc(NC(=O)CSc2nnnn2C)n1
AC50 ([3]; read-out: AC50): 39.8 µM (inconclusive)

CN(C)/N=C/C=C1\CCC/C(=C\c2ccc(F)c(F)c2)C1=O
AC50 [1]: 8.22 µM (active)

COc1cc(/C=N/Nc2nc(C)cc(O)n2)ccc1O
IC50 [2]: 23.9 µM (active)

CCOc1cc(/C=N/N2CCN(Cc3ccccc3)CC2)ccc1O
IC50 [2]: 86.7 µM (active)

CCCn1c(=O)c(C(=O)N/N=C/c2ccc(F)cc2)c(O)c2ccccc21
EC50 [13]: 1.99 µM (active) | EC50 [14]: 3.31 µM (active)

O/N=C1\CCCc2ccc(Cl)cc21
CC50 [5]: 19.5 µM (active)

C/C(=N\NC(=O)c1ccccc1C)c1ccc(NC(=O)c2cccs2)cc1
AC50 ([3]; read-out: AC50): 31.6 µM (inconclusive) | AC50 [9]: 22.4 µM (inconclusive)

CCCCNCC(O)(c1ccc(Cl)cc1)c1ccc(Cl)cc1
CC50 [5]: 7.11 µM (active)
